{"source": "ChEMBL document CHEMBL6087405", "about": "“Discovery and optimization of anthraquinone derivatives containing substituted bisbenzyloxy groups as a novel scaffold damaged endoplasmic reticulum and against hepatocellular carcinoma cells” (Bioorg Med Chem, 2024)", "key": {"[1]": {"test_system": "Huh-7", "assay": "Induction of ER stress in human Huh-7 cells assessed as increase in CHOP protein level at 4 uM incubated for 48 hrs in presence of 4pba by Western blot analysis", "format": "functional, cell-based"}, "[2]": {"test_system": "Huh-7", "assay": "Induction of apoptosis in human Huh-7 cells assessed as viable cells at 4 uM measured after 48 hrs by Annexin V-PE staining based flow cytometry analysis (reference value: 93.69%)", "format": "functional", "details": "read-out: Activity"}, "[3]": {"assay": "Drug localization in endoplasmic reticulum of human Huh-7 cells assessed as colocalization at 100 uM measured within 1 hr by fluorescence based analysis", "format": "ADME, subcellular", "details": "huh-7, 1 h"}, "[4]": {"test_system": "Huh-7", "assay": "Induction of morphological change in human Huh-7 cells assessed as nuclear pyknosis at 2 to 4 uM measured after 48 hrs by HE staining based microscopic analysis", "format": "functional, cell-based", "details": "dose 2-4 µM"}, "[5]": {"test_system": "Huh-7", "assay": "Induction of ER stress in human Huh-7 cells assessed as increase in GRP78 protein level at 2 to 4 uM incubated for 48 hrs by Western blot analysis", "format": "functional, cell-based", "details": "dose 2-4 µM"}, "[6]": {"test_system": "Huh-7", "assay": "Induction of ER stress in human Huh-7 cells assessed as increase in ATF6 protein level at 2 to 4 uM incubated for 48 hrs by Western blot analysis", "format": "functional, cell-based", "details": "dose 2-4 µM"}, "[7]": {"test_system": "Huh-7", "assay": "Induction of apoptosis in human Huh-7 cells assessed as necrotic cells at 8 uM measured after 48 hrs in presence of Z-VAD by Annexin V-PE staining based flow cytometry analysis (reference value: 3.37%)", "format": "functional"}, "[8]": {"test_system": "Huh-7", "assay": "Induction of apoptosis in human Huh-7 cells assessed as early apoptotic cells at 8 uM measured after 48 hrs by Annexin V-PE staining based flow cytometry analysis (reference value: 0.88%)", "format": "functional"}, "[9]": {"test_system": "Huh-7", "assay": "Induction of apoptosis in human Huh-7 cells assessed as late apoptotic cells at 4 uM measured after 48 hrs by Annexin V-PE staining based flow cytometry analysis (reference value: 2.06%)", "format": "functional"}, "[10]": {"test_system": "Huh-7", "assay": "Induction of mitochondrial ROS release in human Huh-7 cells at 2 uM measured after 24 hrs in presence of […] by fluorescent microscopic analysis", "format": "functional, cell-based"}}, "note": "Active and inactive are the calls of the source. No cut-off for these calls is given here.", "data": [{"smiles": "COc1ccc(COc2cccc3c2C(=O)c2c(OCc4ccc(OC)cc4)cc(C(=O)NCCNCCO)cc2C3=O)cc1", "values": [{"measurement": "Activity", "setting": "[1]", "result": "inactive"}, {"measurement": "viability at 4 µM", "setting": "[2]", "result": 40.2, "unit": "%"}, {"measurement": "Drug uptake", "setting": "[3]", "result": "Active"}, {"measurement": "Activity", "setting": "[4]", "result": "Active"}, {"measurement": "Activity", "setting": "[5]", "result": "Active"}, {"measurement": "Activity", "setting": "[6]", "result": "Active"}, {"measurement": "Activity", "setting": "[7]", "result": 10.59, "unit": "%"}, {"measurement": "Activity", "setting": "[8]", "result": 68.79, "unit": "%"}, {"measurement": "Activity", "setting": "[9]", "result": 7.59, "unit": "%"}, {"measurement": "Activity", "setting": "[10]", "result": "inactive"}]}]}
